Organism: Rattus norvegicus
Assay type: toxicity, organism-based, Sprague-Dawley
Details: in vivo, po, route oral GAVAGE, vehicle 100 % SALINE; for ABSOLUTE EOSINOPHIL / ABSOLUTE LYMPHOCYTE / ABSOLUTE MONOCYTE / ABSOLUTE SEGMENTED NEUTROPHIL / BASOPHIL / EOSINOPHIL / ERYTHROCYTE COUNT / HEMATOCRIT / HEMOGLOBIN / LEUKOCYTE COUNT / LYMPHOCYTE / MEAN CORPUSCULAR HEMOGLOBIN / MEAN CORPUSCULAR HEMOGLOBIN CONCENTRATION / MONOCYTE / NEUTROPHIL / NUCLEATED RED BLOOD CELLS / PLATELET COUNT: tissue Blood; for ALANINE AMINOTRANSFERASE / ALBUMIN / ALKALINE PHOSPHATASE / ASPARTATE AMINOTRANSFERASE / BLOOD UREA NITROGEN / CARBON DIOXIDE / CHLORIDE / CHOLESTEROL / CREATINE PHOSPHOKINASE / CREATININE / GLUCOSE / LACTATE DEHYDROGENASE / LIPASE / PHOSPHORUS / POTASSIUM / SODIUM / TOTAL BILIRUBIN / TOTAL PROTEIN / URIC ACID: tissue Plasma
[1] = 700 mg/kg, 24 h, dose level Low, time 1 day
[2] = 2100 mg/kg, 6 h, dose level High, time 0.25 day
[3] = 2100 mg/kg, 24 h, dose level High, time 1 day

Description: DrugMatrix - Regimen: Single

## CN(C)C=O [DIMETHYLFORMAMIDE]
[1]
  ABSOLUTE EOSINOPHIL: 0 CELLS/uL
  ABSOLUTE LYMPHOCYTE: 11354.83 CELLS/uL
  ABSOLUTE MONOCYTE: 102.33 CELLS/uL
  ABSOLUTE SEGMENTED NEUTROPHIL: 726.17 CELLS/uL
  BASOPHIL: 0%
  EOSINOPHIL: 0%
  ERYTHROCYTE COUNT: 5.12 x10E6/uL
  HEMATOCRIT: 33.43%
  HEMOGLOBIN: 13.52 G/DL
  LEUKOCYTE COUNT: 12.18 x10E3/uL
  LYMPHOCYTE: 93.17%
  MEAN CORPUSCULAR HEMOGLOBIN: 26.43 pg
  MEAN CORPUSCULAR HEMOGLOBIN CONCENTRATION: 40.52 G/DL
  MONOCYTE: 0.83%
  NEUTROPHIL: 6%
  NUCLEATED RED BLOOD CELLS: 0 /100WBC
  PLATELET COUNT: 1092.67 x10E3/uL
  ALANINE AMINOTRANSFERASE: 23.17 u/L
  ALBUMIN: 4.17 G/DL
  ALKALINE PHOSPHATASE: 336.83 u/L
  ASPARTATE AMINOTRANSFERASE: 50.5 u/L
  BLOOD UREA NITROGEN: 12.5 mg/dL
  CARBON DIOXIDE: 31.17 mmol/L
  CHLORIDE: 96.83 MEQ/L
  CHOLESTEROL: 74.83 mg/dL
  CREATINE PHOSPHOKINASE: 314.83 u/L
  CREATININE: 0.19 mg/dL
  GLUCOSE: 144.5 mg/dL
  LACTATE DEHYDROGENASE: 95 u/L
  LIPASE: 9.67 u/L
  PHOSPHORUS: 10.98 mg/dL
  POTASSIUM: 5.69 MEQ/L
  SODIUM: 142.42 MEQ/L
  TOTAL BILIRUBIN: 0.12 mg/dL
  TOTAL PROTEIN: 6.2 G/DL
  URIC ACID: 0.68 mg/dL
[2]
  ABSOLUTE EOSINOPHIL: 125.17 CELLS/uL
  ABSOLUTE LYMPHOCYTE: 14316 CELLS/uL
  ABSOLUTE MONOCYTE: 63 CELLS/uL
  ABSOLUTE SEGMENTED NEUTROPHIL: 1412.5 CELLS/uL
  BASOPHIL: 0%
  EOSINOPHIL: 0.83%
  ERYTHROCYTE COUNT: 5.21 x10E6/uL
  HEMATOCRIT: 35.07%
  HEMOGLOBIN: 12.68 G/DL
  LEUKOCYTE COUNT: 15.92 x10E3/uL
  LYMPHOCYTE: 89.67%
  MEAN CORPUSCULAR HEMOGLOBIN: 24.33 pg
  MEAN CORPUSCULAR HEMOGLOBIN CONCENTRATION: 36.2 G/DL
  MONOCYTE: 0.33%
  NEUTROPHIL: 9.17%
  NUCLEATED RED BLOOD CELLS: 0 /100WBC
  PLATELET COUNT: 1045.5 x10E3/uL
  ALANINE AMINOTRANSFERASE: 61 u/L
  ALBUMIN: 4.12 G/DL
  ALKALINE PHOSPHATASE: 276.83 u/L
  ASPARTATE AMINOTRANSFERASE: 108.5 u/L
  BLOOD UREA NITROGEN: 6.5 mg/dL
  CARBON DIOXIDE: 20.17 mmol/L
  CHLORIDE: 106 MEQ/L
  CHOLESTEROL: 72.83 mg/dL
  CREATINE PHOSPHOKINASE: 210.67 u/L
  CREATININE: 0.24 mg/dL
  GLUCOSE: 180 mg/dL
  LACTATE DEHYDROGENASE: 149.33 u/L
  LIPASE: 8.17 u/L
  PHOSPHORUS: 13.73 mg/dL
  SODIUM: 144.38 MEQ/L
  TOTAL BILIRUBIN: 0.1 mg/dL
  TOTAL PROTEIN: 5.32 G/DL
  URIC ACID: 2.23 mg/dL
[3]
  ABSOLUTE EOSINOPHIL: 20.83 CELLS/uL
  ABSOLUTE LYMPHOCYTE: 12212.83 CELLS/uL
  ABSOLUTE MONOCYTE: 201.33 CELLS/uL
  ABSOLUTE SEGMENTED NEUTROPHIL: 481.67 CELLS/uL
  BASOPHIL: 0%
  EOSINOPHIL: 0.17%
  ERYTHROCYTE COUNT: 5.11 x10E6/uL
  HEMATOCRIT: 32.92%
  HEMOGLOBIN: 13.1 G/DL
  LEUKOCYTE COUNT: 12.92 x10E3/uL
  LYMPHOCYTE: 94.67%
  MEAN CORPUSCULAR HEMOGLOBIN: 25.65 pg
  MEAN CORPUSCULAR HEMOGLOBIN CONCENTRATION: 39.83 G/DL
  MONOCYTE: 1.5%
  NEUTROPHIL: 3.67%
  NUCLEATED RED BLOOD CELLS: 0.17 /100WBC
  PLATELET COUNT: 1033.5 x10E3/uL
  ALANINE AMINOTRANSFERASE: 24.17 u/L
  ALBUMIN: 4.07 G/DL
  ALKALINE PHOSPHATASE: 292.33 u/L
  ASPARTATE AMINOTRANSFERASE: 43.17 u/L
  BLOOD UREA NITROGEN: 10.5 mg/dL
  CARBON DIOXIDE: 30.5 mmol/L
  CHLORIDE: 99.17 MEQ/L
  CHOLESTEROL: 80.33 mg/dL
  CREATINE PHOSPHOKINASE: 164.67 u/L
  CREATININE: 0.19 mg/dL
  GLUCOSE: 147.33 mg/dL
  LACTATE DEHYDROGENASE: 73.33 u/L
  LIPASE: 10.33 u/L
  PHOSPHORUS: 10.72 mg/dL
  POTASSIUM: 5.2 MEQ/L
  SODIUM: 143.78 MEQ/L
  TOTAL BILIRUBIN: 0.1 mg/dL
  TOTAL PROTEIN: 5.97 G/DL
  URIC ACID: 0.63 mg/dL

From ChEMBL document CHEMBL3885881, “DrugMatrix”
